This test addresses T1, FPRL-1 (Homo sapiens, UniProt P25090).
T1 construct: expressed in transfected cells
T1 sequence (P25090 1-351): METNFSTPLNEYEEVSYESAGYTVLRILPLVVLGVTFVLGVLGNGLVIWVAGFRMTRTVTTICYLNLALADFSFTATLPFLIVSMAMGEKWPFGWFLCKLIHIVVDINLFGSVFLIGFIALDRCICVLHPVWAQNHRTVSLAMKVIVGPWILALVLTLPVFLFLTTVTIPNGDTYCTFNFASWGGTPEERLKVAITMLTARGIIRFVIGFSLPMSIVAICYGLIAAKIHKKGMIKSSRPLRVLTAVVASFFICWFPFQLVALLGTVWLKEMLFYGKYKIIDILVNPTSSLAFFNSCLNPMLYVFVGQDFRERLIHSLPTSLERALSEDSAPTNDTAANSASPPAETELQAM
Description: compound-induced calcium activity on FLIPR Tetra in CHO-Ga16 cells stably expressing FPRL1. It counts as cell-based. To be noted: for FPRL-1 Ga16-CHO (eff): efficacy value in brackets under EC50; for EC50: tested at 0.61 to 10,000 nM. As for the experimental part:
CHO-Ga16 cells stably expressing FPRL1 were cultured in (F12, 10% FBS, 1% PSA, 400 μg/ml geneticin and 50 μg/ml hygromycin) and HEK-Gqi5 cells stable expressing FPR1 were cultured in (DMEM high glucose, 10% FBS, 1% PSA, 400 μg/ml geneticin and 50 μg/ml hygromycin). In general, the day before the experiment, 18,000 cells/well were plated in a 384-well clear bottom poly-d-lysine coated plate. The following day the screening compound-induced calcium activity was assayed on the FLIPR^Tetra. The drug plates were prepared in 384-well microplates using the EP3 and the MultiPROBE robotic liquid handling systems. Compounds were tested at concentrations ranging from 0.61 to 10,000 nM. Results are expressed as EC50 (nM) and efficacy values.

This note sets out measurements from patent US8809367B2, “1-1-Oxo-1,2,3,4-tetrahydroisoquinolin-7-yl)urea derivatives as N-formyl peptide receptor like-1 (FPRL-1) receptor modulators” (Allergan, Inc., priority 2011, dated 2014).

As usually defined, the EC50 is the concentration needed to bring the measured effect to its halfway point.

The structures appear in SMILES notation.

With `CCSc1ccc(NC(=O)Nc2ccc3c(c2)C(=O)N(CCCN)C(c2ccc(C#N)cc2)C3)cc1` (stereo not shown) [Compound 9, 1-[2-(3-aminopropyl)-3-(4-cyanophenyl)-1-oxo-1,2,3,4-tetrahydroisoquinolin-7-yl]-3-[4-(ethylthio)phenyl]urea], the “FPRL-1 Ga16-CHO (eff)” value was “(1.0)” and the concentration giving a half-maximal response (EC50) came to 0.023 µM.
With `CSc1ccc(NC(=O)Nc2ccc3c(c2)C(=O)N(CCc2c[nH]cn2)C(c2ccc(Cl)nc2)C3)cc1` (stereo not shown) [Compound 26, 1-{3-(6-chloropyridin-3-yl)-2-[2-(1H-imidazol-4-yl)ethyl]-1-oxo-1,2,3,4-tetrahydroisoquinolin-7-yl}-3-[4-(methylthio)phenyl]urea], the “FPRL-1 Ga16-CHO (eff)” value is reported as “(0.89)” and the EC50 is 0.0063 µM.
In the same order, the values of `CC(=O)c1ccc(NC(=O)Nc2ccc3c(c2)C(=O)N(CCN)C(c2ccc(C#N)cc2)C3)cc1` (stereo not shown) [Compound 2, 1-(4-acetylphenyl)-3-[2-(2-aminoethyl)-3-(4-cyanophenyl)-1-oxo-1,2,3,4-tetrahydroisoquinolin-7-yl]urea] are “(0.90)” and 0.034 µM.
The matching figures for `CSc1ccc(NC(=O)Nc2ccc3c(c2)C(=O)N(CCCN)C(c2ccc(C#N)cc2)C3)cc1` (stereo not shown) [Compound 5, 1-[2-(3-aminopropyl)-3-(4-cyanophenyl)-1-oxo-1,2,3,4-tetrahydroisoquinolin-7-yl]-3-[4-(methylthio)phenyl]urea]: “(0.70)” and 0.0025 µM.
With `CS(=O)(=O)c1ccc(NC(=O)Nc2ccc3c(c2)C(=O)N(CCc2c[nH]cn2)C(c2ccc(C#N)cc2)C3)cc1` (stereo not shown) [Compound 30, 1-{3-(4-cyanophenyl)-2-[2-(1H-imidazol-4-yl)ethyl]-1-oxo-1,2,3,4-tetrahydroisoquinolin-7-yl}-3-[4-(methylsulfonyl)phenyl]urea], the “FPRL-1 Ga16-CHO (eff)” value is given as “(1.00)” and the EC50 worked out at 0.02 µM.
`CC(=O)c1ccc(NC(=O)Nc2ccc3c(c2)C(=O)N(CCCN)C(c2ccc(C#N)cc2)C3)cc1` (stereo not shown) [Compound 1, 1-(4-acetylphenyl)-3-[2-(3-aminopropyl)-3-(4-cyanophenyl)-1-oxo-1,2,3,4-tetrahydroisoquinolin-7-yl]urea]: the “FPRL-1 Ga16-CHO (eff)” value is reported as “(1.00)” and the EC50 is 0.04 µM.
In the case of `CS(=O)(=O)c1ccc(NC(=O)Nc2ccc3c(c2)C(=O)N(CCc2c[nH]cn2)C(c2ccc(Cl)cn2)C3)cc1` (stereo not shown) [Compound 34, 1-{3-(5-chloropyridin-2-yl)-2-[2-(1H-imidazol-4-yl)ethyl]-1-oxo-1,2,3,4-tetrahydroisoquinolin-7-yl}-3-[4-(methylsulfonyl)phenyl]urea], the “FPRL-1 Ga16-CHO (eff)” value is listed as “(0.99)” and the EC50 worked out at 0.0095 µM.
The matching figures for `CC(=O)c1ccc(NC(=O)Nc2ccc3c(c2)C(=O)N(CCc2c[nH]cn2)C(c2ccc(Cl)nc2)C3)cc1` (stereo not shown) [Compound 25, 1-(4-acetylphenyl)-3-{3-(6-chloropyridin-3-yl)-2-[2-(1H-imidazol-4-yl)ethyl]-1-oxo-1,2,3,4-tetrahydroisoquinolin-7-yl}urea]: “(0.81)” and 0.024 µM.
